In ChEMBL document CHEMBL1201862, “PubChem BioAssay data set” (2004):
Calls of active or inactive are those of the source.

Assays:
[1] = molecular target: T1, Replicative DNA helicase DnaB (Mycobacterium tuberculosis, UniProt P9WMR3); test: DnaB intein splicing inhibitors, dose response, biochemical, cell-free fluorescence (AID 449749); assay type: functional
T1 sequence (P9WMR3 whole entry): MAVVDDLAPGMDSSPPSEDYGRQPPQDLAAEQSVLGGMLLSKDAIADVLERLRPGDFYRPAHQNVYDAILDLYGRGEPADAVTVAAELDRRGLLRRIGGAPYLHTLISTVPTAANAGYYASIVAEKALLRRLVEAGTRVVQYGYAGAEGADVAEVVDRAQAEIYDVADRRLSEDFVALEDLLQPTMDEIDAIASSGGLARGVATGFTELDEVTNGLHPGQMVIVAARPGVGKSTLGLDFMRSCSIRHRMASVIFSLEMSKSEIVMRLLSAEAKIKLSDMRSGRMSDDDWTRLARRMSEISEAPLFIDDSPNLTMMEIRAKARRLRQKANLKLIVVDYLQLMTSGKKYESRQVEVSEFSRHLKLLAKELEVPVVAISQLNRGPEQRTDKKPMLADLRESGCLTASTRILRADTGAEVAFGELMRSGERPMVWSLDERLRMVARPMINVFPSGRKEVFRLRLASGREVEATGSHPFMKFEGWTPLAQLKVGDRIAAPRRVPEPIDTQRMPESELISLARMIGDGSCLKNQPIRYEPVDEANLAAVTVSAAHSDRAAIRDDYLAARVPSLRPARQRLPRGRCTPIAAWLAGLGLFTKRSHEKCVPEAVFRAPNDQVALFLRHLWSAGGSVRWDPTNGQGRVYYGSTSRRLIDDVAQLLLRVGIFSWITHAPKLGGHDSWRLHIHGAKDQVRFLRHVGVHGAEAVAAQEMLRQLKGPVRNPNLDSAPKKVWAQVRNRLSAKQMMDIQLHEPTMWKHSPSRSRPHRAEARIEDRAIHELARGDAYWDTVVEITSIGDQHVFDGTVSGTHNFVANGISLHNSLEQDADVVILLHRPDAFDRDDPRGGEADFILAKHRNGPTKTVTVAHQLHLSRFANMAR

Protein RecA = molecular target: T2, Protein RecA (Mycobacterium tuberculosis, UniProt P9WHJ3); test: Fluorescence Cell-Free Homogeneous Dose Retest to Identify Inhibitors of RecA-Intein Splicing Activity. [Related pubchem assays (depositor defined):AID2097, AID2223, AID489010, AID492950]; assay type: functional
T2 sequence (P9WHJ3 whole entry): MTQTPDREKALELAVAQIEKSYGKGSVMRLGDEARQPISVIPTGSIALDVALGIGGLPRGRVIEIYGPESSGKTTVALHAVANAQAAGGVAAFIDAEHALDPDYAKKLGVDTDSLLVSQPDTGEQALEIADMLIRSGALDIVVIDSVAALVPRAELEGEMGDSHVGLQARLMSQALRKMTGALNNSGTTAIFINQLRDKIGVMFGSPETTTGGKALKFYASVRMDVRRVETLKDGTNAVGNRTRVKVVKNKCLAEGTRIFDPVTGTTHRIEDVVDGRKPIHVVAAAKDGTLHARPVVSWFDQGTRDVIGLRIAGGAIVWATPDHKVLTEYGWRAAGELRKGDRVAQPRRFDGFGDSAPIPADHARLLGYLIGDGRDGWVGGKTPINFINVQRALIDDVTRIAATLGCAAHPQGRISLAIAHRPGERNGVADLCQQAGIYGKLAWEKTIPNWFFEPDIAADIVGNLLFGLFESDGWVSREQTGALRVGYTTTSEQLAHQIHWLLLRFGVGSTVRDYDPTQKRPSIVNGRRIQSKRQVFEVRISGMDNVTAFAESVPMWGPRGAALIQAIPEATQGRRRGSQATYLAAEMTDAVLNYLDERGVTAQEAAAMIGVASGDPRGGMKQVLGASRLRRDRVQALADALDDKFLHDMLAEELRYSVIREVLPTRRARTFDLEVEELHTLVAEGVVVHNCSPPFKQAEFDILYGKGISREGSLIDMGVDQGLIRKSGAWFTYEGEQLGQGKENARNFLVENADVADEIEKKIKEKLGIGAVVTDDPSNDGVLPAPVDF

[2] = molecular target: T3, Sentrin-specific protease 8 (Homo sapiens, UniProt Q96LD8); assay type: functional
T3 sequence (Q96LD8 whole entry): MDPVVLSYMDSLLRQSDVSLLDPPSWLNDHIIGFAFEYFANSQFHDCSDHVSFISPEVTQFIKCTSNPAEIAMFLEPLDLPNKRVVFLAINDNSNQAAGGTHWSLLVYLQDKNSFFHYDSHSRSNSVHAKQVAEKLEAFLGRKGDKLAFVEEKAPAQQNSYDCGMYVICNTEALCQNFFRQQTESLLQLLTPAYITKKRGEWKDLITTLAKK

[3] = molecular target: T3, Sentrin-specific protease 8; assay type: functional; remark: listed apart in the source
Cytochrome P450 2C9 = Cytochrome P450 2C9 (Homo sapiens, UniProt P11712)
Chain of Cytochrome P450 2C9 (P11712 whole entry): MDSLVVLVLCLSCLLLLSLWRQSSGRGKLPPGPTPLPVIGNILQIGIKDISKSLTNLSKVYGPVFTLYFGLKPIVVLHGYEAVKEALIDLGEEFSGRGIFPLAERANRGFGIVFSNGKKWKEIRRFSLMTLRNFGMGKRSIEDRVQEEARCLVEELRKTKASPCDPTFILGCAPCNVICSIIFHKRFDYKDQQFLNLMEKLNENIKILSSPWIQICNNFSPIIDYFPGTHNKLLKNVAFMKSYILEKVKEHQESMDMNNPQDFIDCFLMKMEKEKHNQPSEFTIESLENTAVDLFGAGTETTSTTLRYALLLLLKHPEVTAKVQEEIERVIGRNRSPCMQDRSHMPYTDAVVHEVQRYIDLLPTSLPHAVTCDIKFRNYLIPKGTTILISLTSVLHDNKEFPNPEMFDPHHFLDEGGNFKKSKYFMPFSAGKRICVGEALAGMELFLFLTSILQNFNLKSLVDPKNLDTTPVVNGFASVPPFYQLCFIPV

Cytochrome P450 2D6 = Cytochrome P450 2D6 (Homo sapiens, UniProt P10635);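 note: CYP2D6 member of a cytochrome P450 panel assay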
Chain of Cytochrome P450 2D6 (P10635 whole entry): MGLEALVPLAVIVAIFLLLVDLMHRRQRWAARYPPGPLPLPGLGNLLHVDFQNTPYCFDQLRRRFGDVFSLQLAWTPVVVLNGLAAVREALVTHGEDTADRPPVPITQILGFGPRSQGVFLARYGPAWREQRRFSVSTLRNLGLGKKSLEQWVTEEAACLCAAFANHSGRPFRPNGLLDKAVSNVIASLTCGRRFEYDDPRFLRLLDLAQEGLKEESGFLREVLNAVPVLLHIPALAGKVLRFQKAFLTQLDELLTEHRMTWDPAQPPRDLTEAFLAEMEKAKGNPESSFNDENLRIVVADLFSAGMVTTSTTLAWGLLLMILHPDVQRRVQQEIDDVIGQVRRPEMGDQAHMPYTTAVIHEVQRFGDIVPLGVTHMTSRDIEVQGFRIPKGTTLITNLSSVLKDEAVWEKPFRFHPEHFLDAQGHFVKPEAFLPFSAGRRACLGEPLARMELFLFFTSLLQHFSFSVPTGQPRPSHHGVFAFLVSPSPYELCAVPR

Beta-galactosidase = Beta-galactosidase (Escherichia coli, UniProt Q8VNN2); test: PubChem AID 485352; assay type: functional
Chain of Beta-galactosidase (Q8VNN2 whole entry): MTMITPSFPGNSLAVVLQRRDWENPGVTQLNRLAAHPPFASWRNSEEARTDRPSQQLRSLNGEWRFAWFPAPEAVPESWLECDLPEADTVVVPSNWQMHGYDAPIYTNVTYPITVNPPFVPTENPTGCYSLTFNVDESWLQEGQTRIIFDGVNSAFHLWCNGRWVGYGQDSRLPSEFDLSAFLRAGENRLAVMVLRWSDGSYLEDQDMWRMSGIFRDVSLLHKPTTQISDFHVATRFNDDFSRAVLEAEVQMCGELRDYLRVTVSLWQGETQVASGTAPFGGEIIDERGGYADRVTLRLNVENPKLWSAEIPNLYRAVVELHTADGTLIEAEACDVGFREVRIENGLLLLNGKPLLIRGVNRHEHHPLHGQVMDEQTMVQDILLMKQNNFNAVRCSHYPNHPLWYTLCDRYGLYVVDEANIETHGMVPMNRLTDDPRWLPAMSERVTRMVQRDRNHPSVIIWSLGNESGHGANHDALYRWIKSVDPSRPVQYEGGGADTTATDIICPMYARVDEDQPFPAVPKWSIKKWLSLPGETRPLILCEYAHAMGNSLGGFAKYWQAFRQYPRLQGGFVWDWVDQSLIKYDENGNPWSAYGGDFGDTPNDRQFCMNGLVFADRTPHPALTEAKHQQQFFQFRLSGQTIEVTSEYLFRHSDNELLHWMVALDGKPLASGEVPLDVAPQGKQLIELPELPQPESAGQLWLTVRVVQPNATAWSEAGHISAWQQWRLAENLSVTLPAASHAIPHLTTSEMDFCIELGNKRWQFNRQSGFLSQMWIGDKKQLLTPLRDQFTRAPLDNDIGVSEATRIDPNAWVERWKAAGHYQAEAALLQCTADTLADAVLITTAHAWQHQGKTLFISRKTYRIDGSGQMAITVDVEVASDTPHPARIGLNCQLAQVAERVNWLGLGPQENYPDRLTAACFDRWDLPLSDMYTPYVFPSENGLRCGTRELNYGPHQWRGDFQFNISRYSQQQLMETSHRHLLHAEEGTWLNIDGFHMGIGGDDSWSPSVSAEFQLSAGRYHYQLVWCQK

[4] = molecular target: T4, Type-1 angiotensin II receptor (Homo sapiens, UniProt P30556); test: AT1 receptor antagonists, dose response, selectivity assay for APJ receptor antagonist project, cell-based, uHTS hits (AID 463214); assay type: functional;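 note: antagonist potency against angiotensin II stimulated AT1 response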
T4 sequence (P30556 whole entry): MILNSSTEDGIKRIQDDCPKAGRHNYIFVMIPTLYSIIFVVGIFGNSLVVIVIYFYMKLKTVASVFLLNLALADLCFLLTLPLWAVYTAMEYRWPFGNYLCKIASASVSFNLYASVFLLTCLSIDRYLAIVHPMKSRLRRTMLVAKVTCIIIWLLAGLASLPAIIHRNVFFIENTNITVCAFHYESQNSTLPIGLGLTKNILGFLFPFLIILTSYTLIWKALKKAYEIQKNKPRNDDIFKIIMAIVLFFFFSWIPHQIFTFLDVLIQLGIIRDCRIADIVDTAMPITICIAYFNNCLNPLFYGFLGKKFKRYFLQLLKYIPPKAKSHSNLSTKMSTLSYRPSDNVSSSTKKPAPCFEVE

[5] = ADAM10 protease inhibitors, dose response, selectivity assay for ADAM17 exosite inhibitor project, biochemical, FRET peptide substrate, recombinant human ADAM10 (AID 743259);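 note: ADAM10 enzyme cleaving a FRET peptide substrate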
[6] = molecular target: Disintegrin and metalloproteinase domain-containing protein 17 (Homo sapiens, UniProt P78536); test: exosite inhibitors of ADAM17, dose response, biochemical (AID 743260)
Chain of Disintegrin and metalloproteinase domain-containing protein 17 (P78536 whole entry, the tested form may be a part): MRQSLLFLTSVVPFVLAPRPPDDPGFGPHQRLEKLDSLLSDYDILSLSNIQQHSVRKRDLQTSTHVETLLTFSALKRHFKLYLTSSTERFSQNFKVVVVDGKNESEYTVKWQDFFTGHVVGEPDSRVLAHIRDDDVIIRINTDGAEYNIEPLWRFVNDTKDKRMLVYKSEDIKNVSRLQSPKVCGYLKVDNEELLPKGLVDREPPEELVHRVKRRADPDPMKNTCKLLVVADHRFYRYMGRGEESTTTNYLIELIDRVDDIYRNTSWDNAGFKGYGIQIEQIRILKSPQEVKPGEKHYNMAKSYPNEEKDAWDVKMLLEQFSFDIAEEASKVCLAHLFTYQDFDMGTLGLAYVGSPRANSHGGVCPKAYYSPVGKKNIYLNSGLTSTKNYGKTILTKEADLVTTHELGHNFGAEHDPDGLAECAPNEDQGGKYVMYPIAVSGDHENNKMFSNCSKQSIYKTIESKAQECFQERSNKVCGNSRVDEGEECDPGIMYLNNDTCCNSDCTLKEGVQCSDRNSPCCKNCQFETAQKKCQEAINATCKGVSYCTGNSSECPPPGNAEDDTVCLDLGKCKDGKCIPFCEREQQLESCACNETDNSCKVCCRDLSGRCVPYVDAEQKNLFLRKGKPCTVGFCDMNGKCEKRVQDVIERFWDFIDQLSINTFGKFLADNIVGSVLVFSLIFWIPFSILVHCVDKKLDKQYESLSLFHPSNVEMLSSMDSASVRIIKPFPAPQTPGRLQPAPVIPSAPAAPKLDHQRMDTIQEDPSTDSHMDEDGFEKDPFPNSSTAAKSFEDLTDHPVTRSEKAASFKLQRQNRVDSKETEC

[7] = molecular target: T5, Apoptotic protease-activating factor 1 (Homo sapiens, UniProt O14727); assay type: functional
T5 sequence (O14727 whole entry): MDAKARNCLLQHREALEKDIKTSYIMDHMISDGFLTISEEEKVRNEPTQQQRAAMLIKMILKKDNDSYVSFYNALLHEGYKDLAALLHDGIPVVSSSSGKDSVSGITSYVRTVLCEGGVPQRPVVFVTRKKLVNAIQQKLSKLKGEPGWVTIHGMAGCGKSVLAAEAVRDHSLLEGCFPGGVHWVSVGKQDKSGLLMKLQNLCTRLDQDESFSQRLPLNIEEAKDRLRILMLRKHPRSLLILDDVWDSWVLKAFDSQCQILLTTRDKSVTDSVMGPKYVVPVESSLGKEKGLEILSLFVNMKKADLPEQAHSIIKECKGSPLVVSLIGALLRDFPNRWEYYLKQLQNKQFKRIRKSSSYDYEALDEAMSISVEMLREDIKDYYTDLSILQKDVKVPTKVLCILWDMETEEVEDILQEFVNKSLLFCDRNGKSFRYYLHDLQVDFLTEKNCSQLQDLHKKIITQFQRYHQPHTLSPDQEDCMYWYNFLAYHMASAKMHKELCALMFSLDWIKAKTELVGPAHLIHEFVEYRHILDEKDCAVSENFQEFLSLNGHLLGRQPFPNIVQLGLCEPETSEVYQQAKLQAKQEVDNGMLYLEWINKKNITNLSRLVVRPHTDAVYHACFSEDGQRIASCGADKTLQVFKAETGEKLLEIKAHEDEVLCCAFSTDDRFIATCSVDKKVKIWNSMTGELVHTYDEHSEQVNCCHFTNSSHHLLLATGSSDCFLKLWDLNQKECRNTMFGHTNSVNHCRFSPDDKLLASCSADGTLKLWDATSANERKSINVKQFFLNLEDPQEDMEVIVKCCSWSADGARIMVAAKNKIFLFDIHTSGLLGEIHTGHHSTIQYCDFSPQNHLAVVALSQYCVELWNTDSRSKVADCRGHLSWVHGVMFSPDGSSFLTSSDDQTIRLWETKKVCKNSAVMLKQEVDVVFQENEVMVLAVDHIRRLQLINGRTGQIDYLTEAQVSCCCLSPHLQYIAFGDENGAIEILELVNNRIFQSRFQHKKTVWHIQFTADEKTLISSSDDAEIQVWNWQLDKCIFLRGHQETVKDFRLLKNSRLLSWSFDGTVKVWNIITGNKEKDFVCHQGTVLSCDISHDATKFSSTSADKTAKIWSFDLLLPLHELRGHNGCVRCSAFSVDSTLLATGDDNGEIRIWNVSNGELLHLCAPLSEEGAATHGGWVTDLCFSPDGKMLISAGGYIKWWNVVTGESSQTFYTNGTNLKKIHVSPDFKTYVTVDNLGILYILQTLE

[8] = microbe, parasite or virus in culture; assay type: functional; conditions: Mycobacterium tuberculosis
[9] = inhibitors of intracellular T. cruzi replication, confirmation, NIH3T3 host cells, beta-gal luminescence (AID 2044); assay type: functional, cell-based;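 note: intracellular parasites grown in NIH/3T3 mouse fibroblasts as host cells; luminescent beta-galactosidase reporter signal from transgenic T. cruzi replicating inside host cells; inhibitors lower the luminescence signal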
[10] = cytotoxicity toward NIH3T3 fibroblasts, dose response, counter-screen, cell-based, ATP luminescence, mouse fibroblasts (AID 2010); assay type: functional;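 note: cells exposed to compound for about 90 hours before reading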
Paired box protein Pax-8 = Paired box protein Pax-8 (Homo sapiens, UniProt Q06710); test: inhibitors of PAX8-driven TPO luciferase reporter, dose response, RMG-I cells, cherry-pick (AID 687027); assay type: functional, cell-based;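 note: luciferase reporter driven by Pax8 target thyroperoxidase promoter measured by SteadyGlo luminescence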
Chain of Paired box protein Pax-8 (Q06710 whole entry): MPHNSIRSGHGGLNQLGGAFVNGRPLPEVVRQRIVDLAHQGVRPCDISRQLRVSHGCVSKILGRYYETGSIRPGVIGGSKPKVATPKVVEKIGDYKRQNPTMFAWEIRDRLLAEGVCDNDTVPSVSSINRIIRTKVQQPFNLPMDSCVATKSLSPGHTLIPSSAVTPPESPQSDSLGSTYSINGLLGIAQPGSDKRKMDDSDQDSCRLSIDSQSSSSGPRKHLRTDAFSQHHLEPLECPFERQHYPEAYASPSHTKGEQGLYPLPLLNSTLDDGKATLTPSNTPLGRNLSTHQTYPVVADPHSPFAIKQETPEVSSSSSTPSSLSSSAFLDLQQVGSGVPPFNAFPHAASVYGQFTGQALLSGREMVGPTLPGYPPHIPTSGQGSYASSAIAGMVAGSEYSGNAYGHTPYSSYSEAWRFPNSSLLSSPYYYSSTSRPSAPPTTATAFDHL

[11] = non-specific cell cytotoxicity, dose response, cytotoxicity control for PAX8 inhibitor project, plate reader, dry powder samples (AID 743021); assay type: functional, cell-based
[12] = inhibitors of HIV Env-driven cell fusion, dose response, cherry-pick (AID 652057); assay type: functional, cell-based
[13] = ZM109 Env clade C HIV-1 fusion inhibitors, dose response, HeLa effector, CEM target cells, luciferase, cherry-pick (AID 652058); assay type: functional, cell-based
[14] = inhibitors of clade B AD8 Env fusion, dose response, cell-based, cherry-pick (AID 652062); assay type: functional;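 note: luciferase signal from cell-cell fusion driven by HIV-1 clade B AD8 Env; potency is for inhibitors of fusion seen as a drop in luminescence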
[15] = IGROV1 ovarian cancer cell cytotoxicity, dose response, PAX8 inhibitor project, plate reader, dry powder samples (AID 743043); assay type: functional, cell-based; conditions: IGROV-1
[16] = cytotoxicity in OVCAR8 ovarian cancer cells, dose response, PAX8 project, cell-based, plate reader, dry powder samples (AID 743197); assay type: functional; conditions: OVCAR-8
[17] = molecular target: T6, COUP transcription factor 2 (Homo sapiens, UniProt P24468); test: Luminescence-based cell-based high throughput dose response assay to identify inhibitors of COUP-TFII (NR2F2).; assay type: functional;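 note: HEK293 cells transiently cotransfected with COUP-TFII expression vector and reporter; luciferase reporter luminescence driven by COUP-TFII from the pX2-168 reporter plasmid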
T6 sequence (P24468 whole entry): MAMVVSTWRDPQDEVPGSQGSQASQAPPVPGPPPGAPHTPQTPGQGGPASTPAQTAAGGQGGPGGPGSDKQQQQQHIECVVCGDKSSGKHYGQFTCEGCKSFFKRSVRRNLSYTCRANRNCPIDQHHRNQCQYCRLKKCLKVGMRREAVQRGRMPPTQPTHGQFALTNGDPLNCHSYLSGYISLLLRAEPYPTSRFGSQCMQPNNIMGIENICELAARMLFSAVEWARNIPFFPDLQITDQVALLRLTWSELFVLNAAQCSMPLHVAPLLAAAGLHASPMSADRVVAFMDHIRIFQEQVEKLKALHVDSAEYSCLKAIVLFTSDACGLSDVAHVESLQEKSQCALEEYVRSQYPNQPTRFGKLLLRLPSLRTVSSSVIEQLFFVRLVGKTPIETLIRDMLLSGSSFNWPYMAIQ

CCOc1ccc(C(c2c(C)n[nH]c2O)c2c(C)n[nH]c2O)cc1OC
AC50 [1]: 0.386 µM (active) | EC50 (Protein RecA): 0.309 µM (active) | IC50 [2]: 43.6 µM (active) | IC50 [3]: 32.9 µM (active)

O=C(CCCC(=O)OCC(=O)c1ccc(Cl)cc1Cl)Nc1cc(C(F)(F)F)ccc1Cl
AC50 (Cytochrome P450 2C9): inconclusive | AC50 (Cytochrome P450 2D6): 12.6 µM (inconclusive) | EC50 (Beta-galactosidase): > 40 µM (inactive) | IC50 [4]: > 40 µM (not active)

O=C(COC(=O)/C=C/c1ccc(OC(F)F)cc1)Nc1ccc(S(=O)(=O)N2CCCC2)cc1
IC50 [5]: > 69.5 µM (inactive) | IC50 [6]: > 69.5 µM (inactive)

CC(C)(C)c1ccc(C(=O)NNc2cc(N3CCCCC3)nc(N3CCCCC3)n2)cc1
IC50 [7]: 3.59 µM (active) | CC50 [8]: > 40 µM (active) | EC50 [9]: 1.7 µM (active) | EC50 [10]: > 60 µM (not active) | IC50 [2]: 0.384 µM (active) | IC50 [3]: 0.796 µM (active)

Cc1cnc(C(=O)OC(C)C(=O)Nc2ccc3c(c2)OCCO3)cn1 (configuration not stated)
IC50 [5]: > 69.5 µM (inactive) | IC50 [6]: > 69.5 µM (inactive)

COc1ccc(NC(=O)Nc2ccc3c(c2)C(=O)N([C@@H](C)CO)C[C@@H](C)[C@H](CN(C)Cc2ccc(C(F)(F)F)cc2)O3)cc1
AC50 (Paired box protein Pax-8): 22 µM (active) | AC50 [11]: 41.7 µM (active)

COc1cccc(S(=O)(=O)N(C)C[C@@H]2Oc3cc(C#CCC(C)C)ccc3S(=O)(=O)N([C@H](C)CO)C[C@H]2C)c1
AC50 [12]: 36.2 µM (active) | AC50 [13]: 36.9 µM (active) | AC50 [14]: 8.75 µM (active)

O=C(CCN1CCCCC1)N[C@H]1CC[C@H](CCn2cc(-c3ccccc3)nn2)O[C@@H]1CO
AC50 [13]: 40.8 µM (active)

C[C@@H]1CCCCO[C@@H](CN(C)Cc2ccc(C(F)(F)F)cc2)[C@H](C)CN([C@H](C)CO)C(=O)c2cc(NS(=O)(=O)c3ccccc3)ccc2O1
AC50 [15]: 41.9 µM (active) | AC50 (Paired box protein Pax-8): 6.14 µM (active) | AC50 [16]: 34 µM (active)

COc1cccc(CC(=O)N(Cc2ccccc2)c2ccccc2C(=O)Nc2cc(OC)ccc2OC)c1
IC50 [5]: > 69.5 µM (inactive) | IC50 [6]: > 69.5 µM (inactive)

O=C(CSc1cc(Cl)ccc1Cl)N/N=C/c1ccc[nH]1
IC50 [17]: 15 µM (inactive)

COC(=O)[C@H](CC(C)C)N1Cc2nnn(Cc3ccc(C)cc3)c2-c2cc(F)ccc2S1(=O)=O
IC50 [5]: > 69.5 µM (inactive) | IC50 [6]: > 69.5 µM (inactive)
